The values that follow come from US12351597B2, “Substituted biphenyl or phenylheteroaryl-mannosides as antagonists of FimH” (GLAXOSMITHKLINE INTELLECTUAL PROPERTY DEVELOPMENT LIMITED, priority 2019, dated 2025).

SMILES strings stand for the structures.

The nature of series [1]: Rat pharmacokinetics (IV infusion 1 mg/kg, then PO 5 mg/kg; blood and urine). The class given is in vivo, Male Wistar Han rats. The following applies: for PK DNAUC h * uM (DNAUC oral, dose normalized): PO 5 mg/kg, blood, AUC divided by dose in mg/kg; for bioavailability: male, Wistar Han, whole blood, oral bioavailability from dose-normalized AUC, PO 5 mg/kg vs IV infusion 1 mg/kg. An excerpt:
General Assays for Obtaining AUC Oral h*μm, % F, and Ue % PO Values
Male Wistar Han rats were purchased from Vital River Laboratory Animal Technology Co. Ltd (Beijing, China). The animals were approx. 6-8 weeks old with body weights of 200-300 g on the dosing date. The animals were housed in a 12-hour light/12-hour dark cycle environment and had free access to food and water. All animals were fed prior to dosing. Studies were approved by the Pharmaron Institutional Animal Care and Use Committee (IACUC).
Test article was administered as an intravenous infusion for 1 hour (1 mg/kg) at 5 mL/kg/h. After 48 h, animals received a single oral dose (5 mg/kg, free form) at a dose volume of 10 mL/kg, respectively. Blood samples were collected at various time points after IV infusion and PO administrations. Urine samples were collected at various time points after IV infusion and PO administrations (for some compounds).
Test article was dissolved in DMSO with vortexing and sonification to obtain a stock solution. An aliquot of the stock solution was mixed with 10% HP-β-CD in saline with vortexing to obtain a solution with concentration at 0.2 mg/mL of test article.
Test article was added into 1% Methyl Cellulose with vortexing and sonication to obtain a homogeneous suspension with concentration at 0.5 mg/mL of test article.
For IV infusion (1 mg/kg) administration, blood samples were collected from each animal at 0, 0.25, 0.5, 0.75, 1, 1.08, 1.25, 1.5, 1.75, 2, 3, 5, 8, 12, 24 hour post-dose.
For PO (5 mg/kg) administration, blood samples were collected from each animal at 0, 0.25, 0.5, 1, 1.5, 2, 3, 4, 6, 8, 12, 24 hour post-dose.
Blood samples (50 μL) were collected from each animal via jugular vein. These blood samples were placed into tubes containing K2EDTA. Whole blood was mixed with same volume of water and inverted several times. The blood samples were stored at −75±15° C. until analysis.
For IV infusion (1 mg/kg) administration, urine samples were collected from each animal at 0-4, 4-8, 8-12, 12-24 hour post-dose.
For PO (5 mg/kg) administration, urine samples were collected (for some compounds) from each animal at 0-4, 4-8, 8-12, 12-24 hour post-dose.
55 μL of standards, 55 μL of QC samples or 55 μL of unknown samples (50 μL of blood or urine with 5 μL 50% acetonitrile) were mixed to 200 μL of acetonitrile containing IS (dexamethasone) to precipitate proteins. Then the samples were vortexed for 30 sec. After centrifugation at 4° C., 4700 rpm for 30 min, and 5 μL of the supernatant was injected into the LC-MS/MS system for quantitative analysis.
Test article blood and urine concentrations for each animal following IV infusion at 1 mg/kg and PO at 5 mg/kg were used to calculate pharmacokinetic parameters by employing a non-compartmental analysis (Phoenix™ WinNonlin® 7.0). The linear trapezoidal algorithm was used for AUC calculation. • AUC oral h*uM: Area under the curve (AUC) of drug concentration in blood vs. time (units: h*μM) following oral administration • DNAUC Dose normalized area under the curve is calculate by divided the area under the curve divided by the dose in the mg/kg • % F: Oral bioavailability (%) derived from the ratio of dose-normalized AUC following PO and IV administration • Ue % PO: Percentage of oral dose eliminated unchanged in urine or an estimate of that parameter generated from using the percentage of the iv dose eliminated in the urine times the oral bioavailability Production Methods: […]

The target of another series is T1, FimH (Escherichia coli, UniProt Q1R2J4).
T1 construct: endogenous in cells; host or cells: E. coli UTI89 whole bacteria (piliated), with guinea pig red blood cells
Put plainly: Hemagglutination inhibition assay (HAI). The class given is cell-based. The note with it: HAI titer / EC>90: concentration reducing bacterial agglutination of guinea pig red blood cells by >90%; UTI89 bacteria. An excerpt:
“HAI titer or EC>90” is that concentration of the FimH inhibitor/antagonist which reduces the bacterial agglutination of guinea pig red blood cells by greater than 90%.
The activities of the Examples 1-40 compounds above as FimH antagonists/inhibitors were obtained by the following assay(s), and values are provided in Table 1. The values not provided mean that the activities have not yet been tested.
Hemagglutination Inhibition Assay (HAI)
The hemagglutination inhibition (HAI) assay was performed with UTI89 bacteria and guinea pig red blood cells, as previously described (S. J. Hultgren, W. R. Schwan, A. J. Schaeffer, J. L. Duncan Infect. Immun. 1986, 54, 613-620 and Jarvis, C.; Han, Z.; Kalas, V.; Klein, R.; Pinkner, J. S.; Ford, B.; Binkley, J.; Cusumano, C. K.; Cusumano, Z.; Mydock-McGrane, L.; Hultgren, S. J.; Janetka, J. W., ChemMedChem 2016, 11, 367-373). Values not listed were not tested.

Take `N#Cc1cc(F)cc(-c2cc(F)c(O[C@H]3O[C@H](CO)[C@@H](O)[C@H](O)[C@@H]3O)c(C(F)(F)F)c2)c1` [Example 6]: the “PK DNAUC h * uM (DNAUC oral, dose normalized)” value in series [1] was ““+” (<01 h · μM)”. For the same compound, the “HAI nM” value at FimH is ““++++” (<50)”.

As to `Cc1cc(-c2cnc(N3CCCC3)cn2)ccc1O[C@H]1O[C@H](CO)[C@@H](O)[C@H](O)[C@@H]1O` [Example 7], the “PK DNAUC h * uM (DNAUC oral, dose normalized)” value in series [1] is on record as ““+” (<01 h · μM)”. Further, the “HAI nM” value at FimH is reported as ““++++” (<50)”.

Broadly, the bioavailability is the share of a dose that reaches the circulation, judged against a reference dose that is usually intravenous. Read a low bioavailability as poor availability. For `Cc1cc(-c2cnc(C3CC3)cn2)ccc1O[C@H]1O[C@H](CO)[C@@H](O)[C@H](O)[C@@H]1O` [Example 12], in series [1], the “PK DNAUC h * uM (DNAUC oral, dose normalized)” value is recorded as ““++” (0.1 ≤ × ≤ 0.2h · μM)” and the bioavailability is > 30%. Moreover, the “Ue % (Ue % po)” value in series [1] (percentage of oral dose eliminated unchanged in urine, or estimate from IV urinary % times oral bioavailability) is ““++” (0.5 ≤ × ≤ 5%)”. On FimH, the “HAI nM” value is listed as ““++++” (<50)”.

On to `Cc1cc(-c2ccnc(C(F)(F)F)n2)ccc1O[C@H]1O[C@H](CO)[C@@H](O)[C@H](O)[C@@H]1O` [Example 14], for which, in series [1], the “PK DNAUC h * uM (DNAUC oral, dose normalized)” value is reported as ““+” (<01 h · μM)”. Besides, the “HAI nM” value on FimH is given as ““+++” (50-200)”.

Turning to `Cc1cc(-c2cnc(C(F)(F)F)nc2)ccc1O[C@H]1O[C@H](CO)[C@@H](O)[C@H](O)[C@@H]1O` [Example 16], the “PK DNAUC h * uM (DNAUC oral, dose normalized)” value in series [1] is ““++” (0.1 ≤ × ≤ 0.2h · μM)”. Further, on FimH, the “HAI nM” value is recorded as ““++++” (<50)”.

As to `OC[C@H]1O[C@H](Oc2c(F)cc(-c3ccc(C(F)(F)F)cn3)cc2C(F)(F)F)[C@@H](O)[C@@H](O)[C@@H]1O` [Example 28], in series [1], the “PK DNAUC h * uM (DNAUC oral, dose normalized)” value was ““+++” (>0.2 h · μM)” and the bioavailability lay in the range of 10 to 30%. In addition, the “HAI nM” value on FimH is reported as ““++++” (<50)”.

Take `Cc1cc(-c2cncc(C#N)c2)ccc1O[C@H]1O[C@H](CO)[C@@H](O)[C@H](O)[C@@H]1O` [Example 37]: the “PK DNAUC h * uM (DNAUC oral, dose normalized)” value in series [1] was ““+” (<01 h · μM)”. Further, the “HAI nM” value at FimH was ““++++” (<50)”.

For the compound `N#Cc1cncc(-c2cc(F)c(O[C@H]3O[C@H](CO)[C@@H](O)[C@H](O)[C@@H]3O)c(C(F)(F)F)c2)c1` [Example 38], the “PK DNAUC h * uM (DNAUC oral, dose normalized)” value in series [1] was ““+” (<01 h · μM)”. The “HAI nM” value on FimH is given as ““++++” (<50)”.
